# Patent US20200138825A1, “METHOD OF TREATING MALIGNANT RHABDOID TUMOR OF THE OVARY (MRTO)/SMALL CELL CANCER OF THE OVARY OF THE HYPERCALCEMIC TYPE(SCCOHT) WITH AN EZH2 INHIBITOR” (Epizyme, Inc., priority 2015, published 2020)
# “And” between values parts separate entries of the source, which are not always exact repeats. Equal values may be shown once. “Also recorded” adds a separate entry of the source. Marks after values point to notes of the source that are not given here.
# Assays:
# [1] = tested on: cell lines and xenografts deficient in INI1 (SNF5/SMARCB1); conditions: Knutson et al. PNAS 2013; cited from earlier work
# [2] = Oral bioavailability; conditions: in vivo
# [3] = tested on: JHOC-5, TYKNU, PA-1, OAW42, ES-2, COV362 cell lines; experiment: Long-term proliferation assays, single-deficient or WT ovarian cell lines; type: cell-based
# [4] = tested on: SMARCA4-negative malignant rhabdoid tumor of ovary (SCCOHT); experiment: Phase 1 clinical activity, SMARCA4-negative malignant rhabdoid tumor of ovary (SCCOHT); type: in vivo, human; conditions: for Tumor size: person, 1600 mg BID oral tablet
# Experimental: (§1) Table 2 describes a Phase 1 clinical trial design (sponsor protocol no.: E7438-G000-001, ClinicalTrials.gov identifier: NCT01897571). The study population included subjects with relapsed or refractory solid tumors or B-cell lymphoma. Subjects received a 3+3 dose-escalation in expansion cohorts receiving 800 mg BID and 1600 mg BID, respectively, or a cohort for ascertaining the effect of food on dosing at 400 mg BID. The primary endpoint was a determination of recommended phase II dose (RP2D)/maximum tolerated dose (MTD). Secondary endpoints included safety, pharmacokinetics (PK), pharmacodynamics (PD) and tumor response, assessed every 8 wks.
# [5] = tested on: SMARCA4-negative thoracic sarcoma; experiment: Phase 1 clinical activity, SMARCA4-negative thoracic sarcoma; type: in vivo, human; conditions: 1600 mg BID
# Experimental: as §1
# [6] = tested on: TOV112D xenograft tumors; experiment: SCCOHT xenograft model (TOV112D); type: in vivo
# Experimental: EZH2 target inhibition was measured by H3K27me3 levels in xenograft tissue collected on day 14 (FIG. 20B). Each point represents the ratio of H3K27me3 to total H3 from the tumor of a single animal.
# [7] = tested on: INI1-negative epithelioid sarcoma; experiment: Phase 1 clinical activity, INI1-negative epithelioid sarcoma; type: in vivo, human
# Experimental: as §1
# [8] = tested on: G401 xenograft
# [9] = tested on: Bin-67 xenograft tumors; experiment: SCCOHT xenograft model (Bin-67); type: in vivo
# Experimental: EZH2 target inhibition was assessed by H3K27me3 levels in xenograft tissue collected on day 18 (FIG. 18B). Each point represents the ratio of H3K27me3 to total H3 from the tumor of a single animal.
# [10] = tested on: COV434 xenograft tumors; experiment: SCCOHT xenograft model (COV434); type: in vivo
# Experimental: After day 28, a portion of the COV434 xenograft cohort were retained to monitor for tumor regrowth while under no treatment, of which there was none. EZH2 target inhibition was assessed by H3K27me3 levels in xenograft tissue collected on day 28 (FIG. 19B). Each point represents the ratio of H3K27me3 to total H3 from the tumor of a single animal.
# [11] = tested on: H3K27me3 in INI1- and SMARCA4-negative tumors; experiment: Pharmacodynamic H3K27me3 inhibition in tumor tissue of patients; type: in vivo, human
# [12] = tested on: Dual SMARCA2 and SMARCA4 deficient ovarian cell lines; conditions: four SMARCA2-deficient and SMARCA4-deficient cell lines
# [13] = tested on: MRT and MRTO/SCCOHT; experiment: Assessment of clinical activity in MRT and MRTO/SCCOHT; type: in vivo, human; conditions: MRT and MRTO/SCCOHT following treatment
# [14] = tested on: INI1-negative malignant rhabdoid tumor; experiment: Phase 1 clinical activity, INI1-negative malignant rhabdoid tumor; type: in vivo, human; conditions: for Best Response / Time on study: INI1-negative malignant rhabdoid tumor
# Experimental: as §1
# [15] = human, in vivo
# Experimental: as §1
# [16] = 800 mg BID, + = remains on study
smiles,measurement,setting,value
CCN(c1cc(-c2ccc(CN3CCOCC3)cc2)cc(C(=O)NCc2c(C)cc(C)[nH]c2=O)c1C)C1CCOCC1 [tazemetostat],sensitivity of INI1-deficient cell lines and xenografts,[1],profound sensitivity and durable regressions
same,oral bioavailability,[2],orally bioavailable
same,sensitivity,[3],Lower sensitivity
same,clinical activity,"[4]; Phase 1, two patients with SCCOHT (SMARCA4-negative)",Clinical activity was observed
same,Best Response,"[4]; SMARCA4-negative SCCOHT, 1600 mg BID",PR week 8*; also recorded: SD week 8
same,Time on study,"[4]; SMARCA4-negative SCCOHT, 1600 mg BID, + = remains on study",25+ weeks and 26+ weeks
same,Tumor size,[4]; after 8 weeks,decreased from baseline
same,Tumor size,[4]; after 16 weeks,further decreased from the 8 week measurement
same,Best Response,[5],PD week 5
same,Time on study,[5],6 weeks
same,tumor volume compared to vehicle,"[6]; 14 days, twice daily",statistically significant differences in volume compared to vehicle
same,H3K27me3 in xenograft tumors,[6]; after 14 days of treatment,reduction of H3K27me3
same,Best Response,[7]; 400 mg BID,PD week 8
same,Time on study,[7]; 400 mg BID,11 weeks
same,Best Response,[7]; 800 mg BID,partial remission (PR); also recorded: PR week 8; also recorded: SD week 8
same,Time on study,[7]; [16],25+ weeks and 24+ weeks
same,antitumor activity,[8],antitumor activity
same,tumor volume compared to vehicle,[9]; after 18 days,statistically significant differences in volume compared to vehicle
same,H3K27me3 in xenograft tumors,[9]; after 18 days of treatment,reduction of H3K27me3
same,tumor volume compared to vehicle,[10]; after 28 days,statistically significant differences in volume compared to vehicle
same,tumor regrowth while under no treatment,[10]; after day 28,none
same,pharmacodynamics inhibition of HeK27me3 in tumor tissue,[11],induces pharmacodynamics inhibition of HeK27me3
same,inhibition of cell growth,[12],Dose-dependent inhibition of cell growth
same,clinical activity,[13],"stable disease for at least six months, partial remission or complete remission"
same,Best Response,[14]; 400 mg BID,SD week 8
same,Time on study,"[14]; 400 mg BID, + = remains on study",12+ weeks
same,Best Response,[14]; 800 mg BID,complete remission (CR); also recorded: CR week 8*; also recorded: PD week 8
same,Time on study,[14]; [16],65+ weeks and 35 weeks
same,Time on study,[14]; 1600 mg BID,16 weeks and 17 weeks
same,response,"[14]; patient with INI1-negative (IHC) relapsed malignant rhabdoid tumor, Phase 1",complete response
same,"Anemia, All Events, All Grades",[15],7
same,"Anemia, All Events, Grade n",[15],1
same,"Anemia, All Treatment-Related, All Grades",[15],3
same,"Anemia, All Treatment-Related, Grade n",[15],0
same,"Asthenia, All Events, All Grades",[15],28
same,"Asthenia, All Events, Grade n",[15],1
same,"Asthenia, All Treatment-Related, All Grades",[15],12
same,"Asthenia, All Treatment-Related, Grade n",[15],0
same,"Constipation, All Events, All Grades",[15],7
same,"Constipation, All Events, Grade n",[15],0
same,"Constipation, All Treatment-Related, All Grades",[15],2
same,"Constipation, All Treatment-Related, Grade n",[15],0
same,"Decreased appetite, All Events, All Grades",[15],11
same,"Decreased appetite, All Events, Grade n",[15],3
same,"Decreased appetite, All Treatment-Related, All Grades",[15],3
same,"Decreased appetite, All Treatment-Related, Grade n",[15],1
same,"Dysgeusia, All Events, All Grades",[15],5
same,"Dysgeusia, All Events, Grade n",[15],0
same,"Dysgeusia, All Treatment-Related, All Grades",[15],5
same,"Dysgeusia, All Treatment-Related, Grade n",[15],0
same,"Dyspnea, All Events, All Grades",[15],8
same,"Dyspnea, All Events, Grade n",[15],0
same,"Dyspnea, All Treatment-Related, All Grades",[15],0
same,"Dyspnea, All Treatment-Related, Grade n",[15],0
same,"Elevated LFTs, All Events, All Grades",[15],2
same,"Elevated LFTs, All Events, Grade n",[15],1
same,"Elevated LFTs, All Treatment-Related, All Grades",[15],0
same,"Elevated LFTs, All Treatment-Related, Grade n",[15],1
same,"Hypertension, All Events, All Grades",[15],3
same,"Hypertension, All Events, Grade n",[15],1
same,"Hypertension, All Treatment-Related, All Grades",[15],1
same,"Hypertension, All Treatment-Related, Grade n",[15],1
same,"Muscle Spasms, All Events, All Grades",[15],5
same,"Muscle Spasms, All Events, Grade n",[15],0
same,"Muscle Spasms, All Treatment-Related, All Grades",[15],2
same,"Muscle Spasms, All Treatment-Related, Grade n",[15],0
same,"Nausea, All Events, All Grades",[15],8
same,"Nausea, All Events, Grade n",[15],0
same,"Nausea, All Treatment-Related, All Grades",[15],7
same,"Nausea, All Treatment-Related, Grade n",[15],0
same,"Neutropenia, All Events, All Grades",[15],2
same,"Neutropenia, All Events, Grade n",[15],1
same,"Neutropenia, All Treatment-Related, All Grades",[15],1
same,"Neutropenia, All Treatment-Related, Grade n",[15],1
same,"Thrombocytopenia, All Events, All Grades",[15],10
same,"Thrombocytopenia, All Events, Grade n",[15],2
same,"Thrombocytopenia, All Treatment-Related, All Grades",[15],6
same,"Thrombocytopenia, All Treatment-Related, Grade n",[15],1
same,"Vomiting, All Events, All Grades",[15],6
same,"Vomiting, All Events, Grade n",[15],0
same,"Vomiting, All Treatment-Related, All Grades",[15],3
same,"Vomiting, All Treatment-Related, Grade n",[15],0
